{
  "source": "patent US8815776B2",
  "about": "“Herbicidal compositions and method of use thereof” (Proactive, LLC, priority 2011, dated 2014)",
  "assay": "Solubility of prodiamine in solvents",
  "format": "physicochemical",
  "from_the_text": "The aprotic solvent is preferably a pyrrolidone such as NMP, though one or more of dimethylsulfoxide (DMSO), dimethylformamide, and gamma-Butyrolactone alone or in mixtures, including mixtures with NMP, are useful. DMSO and gamma-Butyrolactone dissolve 0.24 to 0.25 grams prodiamine per gram solvent. NMP dissolves 0.68 grams prodiamine per gram solvent. The aprotic solvent is the primary solvent in most embodiments of the EC.\nThere are a number of solvents that are not suitable and would be included only to change the composition.\nFatty amides, also called “fatty acid solvents” in this application, are amides formed from a fatty acid and an amine, of which many are known. Preferred are di-substituted fatty acid amides, which include as non-limiting examples N,N-dimethylcaprylamide (available from Cognis as Agnique™ KE-3658), and […] (available as Halcomid™ M8-10). These compounds can fully or partially replace aprotic solvents, and the solvating capacity approaches that of less-preferred aprotic solvents such as DMSO and gamma-Butyrolactone, that is, 0.24 to 0.25 grams prodiamine per gram solvent. A mixture of C8 and C10 fatty acid dimethylamide, (CAS 1118-92-9 and 14433-76-2) are useful.",
  "data": [
    {"smiles": "CCCN(CCC)c1c([N+](=O)[O-])cc(C(F)(F)F)c(N)c1[N+](=O)[O-]", "note": "[prodiamine, N3,N3-di-n-propyl-2,4-dinitro-6-(trifluoromethyl)-m-phenylenediamine]", "values": [
      {"measurement": "Solubility, g prodiamine/g solvent", "setting": "solvent Aromatic 150 (Aromatic Hydrocarbon)", "result": 0.080, "unit": "g prodiamine/g solvent"},
      {"measurement": "Solubility, g prodiamine/g solvent", "setting": "solvent Aromatic 200 (Aromatic Hydrocarbon)", "result": 0.070, "unit": "g prodiamine/g solvent"},
      {"measurement": "Solubility, g prodiamine/g solvent", "setting": "solvent Carbitol TM (Diethylene glycol monomethyl ether)", "result": 0.010, "unit": "g prodiamine/g solvent"},
      {"measurement": "Solubility, g prodiamine/g solvent", "setting": "solvent DEGEE (Diethylene glycol monoethyl ether)", "result": 0.050, "unit": "g prodiamine/g solvent"},
      {"measurement": "Solubility, g prodiamine/g solvent", "setting": "solvent Glycol DPM (Dipropylene glycol methyl ether)", "result": 0.008, "unit": "g prodiamine/g solvent"},
      {"measurement": "Solubility, g prodiamine/g solvent", "setting": "solvent Glycol Ether EB (Diethylene glycol monobutyl ether)", "result": 0.020, "unit": "g prodiamine/g solvent"},
      {"measurement": "Solubility, g prodiamine/g solvent", "setting": "solvent Jefsol 1555 (Proprietary Solvent (Carbonate))", "result": 0.004, "unit": "g prodiamine/g solvent"},
      {"measurement": "prodiamine dissolved per gram solvent", "setting": "solvent NMP", "result": "0.68 grams prodiamine per gram solvent"}
    ]}
  ]
}
